According to BindingDB's records for PubMed 1325033 (Universit&Acute, 1992):
“And” between values parts separate entries of the source, which are not always exact repeats. Equal entries are not always repeated. Peptide text beside a SMILES is read from it.

target: T1, Pituitary adenylate cyclase-activating polypeptide (Rattus norvegicus, UniProt P13589)
T1 sequence (P13589 whole entry): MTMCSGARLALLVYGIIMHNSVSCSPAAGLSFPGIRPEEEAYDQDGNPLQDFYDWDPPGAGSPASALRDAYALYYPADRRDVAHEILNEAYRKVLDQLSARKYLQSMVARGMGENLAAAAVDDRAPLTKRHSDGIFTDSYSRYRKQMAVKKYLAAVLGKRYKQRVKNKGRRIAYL

Row | Ki | Molecule
1 | 300 nM | CCC(C)[C@H](NC(=O)CN)C(=O)N[C@@H](Cc1ccccc1)C(=O)N[C@H](C(=O)N[C@@H](CC(=O)O)C(=O)N[C@@H](CO)C(=O)N[C@@H](Cc1ccc(O)cc1)C(=O)N[C@@H](CO)C(=O)N[C@@H](CCCN=C(N)N)C(=O)N[C@@H](Cc1ccc(O)cc1)C(=O)N[C@@H](CCCN=C(N)N)C(=O)N[C@@H](CCCCN)C(=O)N[C@@H](CCC(N)=O)C(=O)N[C@@H](CCSC)C(=O)N[C@@H](C)C(=O)N[C@H](C(=O)N[C@@H](CCCCN)C(=O)N[C@@H](CCCCN)C(=O)N[C@@H](Cc1ccc(O)cc1)C(=O)N[C@@H](CC(C)C)C(=O)N[C@@H](C)C(=O)N[C@@H](C)C(=O)N[C@H](C(=O)N[C@@H](CC(C)C)C(=O)NCC(=O)N[C@@H](CCCCN)C(=O)N[C@@H](CCCN=C(N)N)C(=O)N[C@@H](Cc1ccc(O)cc1)C(=O)N[C@@H](CCCCN)C(=O)N[C@@H](CCC(N)=O)C(=O)N[C@@H](CCCN=C(N)N)C(=O)N[C@H](C(=O)N[C@@H](CCCCN)C(=O)N[C@@H](CC(N)=O)C(=O)N[C@@H](CCCCN)C(N)=O)C(C)C)C(C)C)C(C)C)[C@@H](C)O (some centres not stated) [PACAP(4-38)] (HELM PEPTIDE1{G.[CCC(C)[C@H](N[*:1])C(=O)[*:2]].F.T.D.S.Y.S.R.Y.R.K.Q.M.A.V.K.K.Y.L.A.A.V.L.G.K.R.Y.K.Q.R.V.K.N.K.[am]}$$$$V2.0)
2 | 350 nM and 1000 nM | CCC(C)[C@H](NC(=O)CNC(=O)[C@H](CC(=O)O)NC(=O)[C@@H](Cc1ccccc1)NC(=O)[C@@H](N)Cc1cnc[nH]1)C(=O)N[C@@H](Cc1ccccc1)C(=O)N[C@H](C(=O)N[C@@H](CC(=O)O)C(=O)N[C@@H](CO)C(=O)N[C@@H](Cc1ccc(O)cc1)C(=O)N[C@@H](CO)C(=O)N[C@@H](CCCN=C(N)N)C(=O)N[C@@H](Cc1ccc(O)cc1)C(=O)N[C@@H](CCCN=C(N)N)C(=O)N[C@@H](CCCCN)C(=O)N[C@@H](CCC(N)=O)C(=O)N[C@@H](CCSC)C(=O)N[C@@H](C)C(=O)N[C@H](C(=O)N[C@@H](CCCCN)C(=O)N[C@@H](CCCCN)C(=O)N[C@@H](Cc1ccc(O)cc1)C(=O)N[C@@H](CC(C)C)C(=O)N[C@@H](C)C(=O)N[C@@H](C)C(=O)N[C@H](C(=O)N[C@@H](CC(C)C)C(N)=O)C(C)C)C(C)C)[C@@H](C)O (stereo partly drawn) [[D-Phe2]PACAP-27]
3 | 5 nM and 40 nM | CCC(C)[C@H](NC(=O)CNC(=O)[C@H](CC(=O)O)NC(=O)[C@@H](Cc1ccccc1)NC(=O)[C@@H](N)Cc1cnc[nH]1)C(=O)N[C@@H](Cc1ccccc1)C(=O)N[C@H](C(=O)N[C@@H](CC(=O)O)C(=O)N[C@@H](CO)C(=O)N[C@@H](Cc1ccc(O)cc1)C(=O)N[C@@H](CO)C(=O)N[C@@H](CCCN=C(N)N)C(=O)N[C@@H](Cc1ccc(O)cc1)C(=O)N[C@@H](CCCN=C(N)N)C(=O)N[C@@H](CCCCN)C(=O)N[C@@H](CCC(N)=O)C(=O)N[C@@H](CCSC)C(=O)N[C@@H](C)C(=O)N[C@H](C(=O)N[C@@H](CCCCN)C(=O)N[C@@H](CCCCN)C(=O)N[C@@H](Cc1ccc(O)cc1)C(=O)N[C@@H](CC(C)C)C(=O)N[C@@H](C)C(=O)N[C@@H](C)C(=O)N[C@H](C(=O)N[C@@H](CC(C)C)C(=O)NCC(=O)N[C@@H](CCCCN)C(=O)N[C@@H](CCCN=C(N)N)C(=O)N[C@@H](Cc1ccc(O)cc1)C(=O)N[C@@H](CCCCN)C(=O)N[C@@H](CCC(N)=O)C(=O)N[C@@H](CCCN=C(N)N)C(=O)N[C@H](C(=O)N[C@@H](CCCCN)C(=O)N[C@@H](CC(N)=O)C(=O)N[C@@H](CCCCN)C(N)=O)C(C)C)C(C)C)C(C)C)[C@@H](C)O (stereo partly drawn) [[D-Phe2]PACAP-38] (HELM PEPTIDE1{H.[dF].D.G.[CCC(C)[C@H](N[*:1])C(=O)[*:2]].F.T.D.S.Y.S.R.Y.R.K.Q.M.A.V.K.K.Y.L.A.A.V.L.G.K.R.Y.K.Q.R.V.K.N.K.[am]}$$$$V2.0)
4 | 300 nM and 2000 nM | H-FTDSYSRYRKQMAVKKYLAAVL-NH2 [PACAP(5-27)]
5 | 1500 nM and 5000 nM | H-SNGIFTDSYSRYRKQMAVKKYLAAVL-NH2 [[Des-His1,Asn3]PACAP-27]
6 | 4000 nM and > 10000 nM | H-TDSYSRYRKQMAVKKYLAAVL-NH2 [PACAP(6-27)]
7 | 25 nM and 150 nM | H-TDSYSRYRKQMAVKKYLAAVLGKRYKQRVKNK-NH2 [PACAP(7-38)]
